Patent US8410170B2, “Use of isothiocyanates compounds in treating prostatic diseases and skin cancer” (Wuxi JC Pharmaceutical Technology Co., Ltd., priority 2005, dated 2013)

Columns and labels:
[1] = test system: LNCaP AI; assay: MTT growth inhibition, hormone independent LNCaP AI; format: cell-based; conditions: Homo sapiens, LNCaP, 168 h, read-out: IC50, growth inhibition
Text: The human prostate cancer cell line LNCaP AD was purchased from the American Type Culture Collection. LNCaP AI cell line was derived from LNCaP cells using a method described previously by Gao et al. (Gao, M., Ossowski, L., and Ferrari, A. C. Activation of Rb and decline in androgen receptor protein precede retinoic acid-induced apoptosis in androgen-dependent LNCaP cells and their androgen-independent derivative. J Cell Physiol, 179: 336-346, 1999). The AD and AI cells were maintained in RPMI-1640 with 10% fetal bovine serum (FBS) and charcoal stripped fetal bovine serum, penicillin-streptomycin for incubation at 5% CO2 and 37° C. respectively.
MTT: MTT and SRB method were used to determine the effects of various isothiocyanates on cell growth as described previously (Kreis, Budman et al, 1997). Briefly, human prostate cancer cell line LNCaP grown exponentially were aliquoted into 96-well plates at a density of 2500 cells/200 μl per well. Twenty-four hrs after the incubation, the cells were exposed for seven days to serial dilutions of indicated isothiocyanate or paclitaxel. […] The absorbance was measured at wavelength 540 nm. The percent of cell survival (T/C%) were calculated based on the results of test groups to that of the control group. […]

[2] = test system: Sp1; assay: Western blot to detect Sp1 in LNCaP cells; format: cell-based, human; conditions: 24 hrs
Experimental: The cells were harvested, washed and total cellular proteins were extracted as described previously (as Example 2). Fifty μg proteins were then subjected to electrophoresis in SDS-PAGE, electro-transferred to nitrocellulose filters, and immunoblotted initially with antibodies against AR, Sp1, and PSA. The same membranes were stripped and re-probed with β-actin for loading control. The result was recorded by ECL films.

[3] = test system: androgen-induced BPH; assay: Therapeutic effects on BPH: Test Two (castrated rats, testosterone propionate; weights and histopathology); format: in vivo, SD rats
Experimental: Thirty-six male SD rats were randomly divided into 4 groups, nine each. Group 1 was served as blank control group (pseudo-surgery control group) in which animals were under the same surgical procedures except no testis was sectioned and fed normally. Groups from 2 to 4 were served as treatment groups in which all animals were anesthetized using ketamine and castrated by removing both testises under sterile conditions. After the surgery, the penicillin was injected to prevent the animals from infection. One week later, the testosterone propionate was injected subcutaneously at dose of 5 mg/kg, once a day for a month. […] Group 3 was served as positive control group in which animals were given Proscar by gavage at dose of 0.1 mg/rat/day for a month beginning on the same day that the testosterone propionate was injected.
Twenty-four hrs after the last dose, the animals were euthanized and weighed. Volume and weight of prostate were measured. The averages of prostate volume/weight and organ coefficient (average weight of prostate/average of body weight) were calculated, and statistical analysis performed (t test).
Prostate tissues of animals from different groups were embedded with paraffin. The tissue sections were stained with H&E for histpathological examination by an anatomical pathologist.

S=C=NCCc1ccccc1 [PEITC, phenethyl isothiocyanate]
IC50 [1]: 600 nM | expression of Sp1 (Western blot) [2]: significantly inhibited | Average Body Weight ([3]; PEITC 2 mg/kg oral (Example 13-11), one month): 337 ± 23.7 g | Average Volume of Prostate ([3]; PEITC 2 mg/kg oral, one month): 1.42 ± 0.16 cm^3 | Average Weight of Prostate ([3]; PEITC 2 mg/kg oral, one month): 1.20 ± 0.16 g | Inhibition of Organ Coefficient ([3]; PEITC 2 mg/kg oral, one month): 16.28% | Organ Coefficient ([3]; PEITC 2 mg/kg oral, one month): 0.36 ± 0.06% | Acinar Density: no. of animals with score 0 ([3]; PEITC 2 mg/kg, 9 animals): 7 | Acinar Density: no. of animals with score + ([3]; PEITC 2 mg/kg, 9 animals): 2 | Acinar Density: no. of animals with score ++ ([3]; PEITC 2 mg/kg, 9 animals): 0 | Acinar Density: no. of animals with score +++ ([3]; PEITC 2 mg/kg, 9 animals): 0 | Connective tissue proliferation, or papillary hyperplasia: no. of animals with score 0 ([3]; PEITC 2 mg/kg, 9 animals): 8 | Connective tissue proliferation, or papillary hyperplasia: no. of animals with score + ([3]; PEITC 2 mg/kg, 9 animals): 1 | Connective tissue proliferation, or papillary hyperplasia: no. of animals with score ++ ([3]; PEITC 2 mg/kg, 9 animals): 0 | Connective tissue proliferation, or papillary hyperplasia: no. of animals with score +++ ([3]; PEITC 2 mg/kg, 9 animals): 0 | Enlargement of Lumen of Gland: no. of animals with score 0 ([3]; PEITC 2 mg/kg, 9 animals): 3 | Enlargement of Lumen of Gland: no. of animals with score + ([3]; PEITC 2 mg/kg, 9 animals): 6 | Enlargement of Lumen of Gland: no. of animals with score ++ ([3]; PEITC 2 mg/kg, 9 animals): 0 | Enlargement of Lumen of Gland: no. of animals with score +++ ([3]; PEITC 2 mg/kg, 9 animals): 0 | Histopathological score of BPH, Average X ± SD ([3]; PEITC 2 mg/kg, 9 animals): 1.78 ± 1.09 | Secretions of Gland: no. of animals with score 0 ([3]; PEITC 2 mg/kg, 9 animals): 3 | Secretions of Gland: no. of animals with score + ([3]; PEITC 2 mg/kg, 9 animals): 5 | Secretions of Gland: no. of animals with score ++ ([3]; PEITC 2 mg/kg, 9 animals): 1 | Secretions of Gland: no. of animals with score +++ ([3]; PEITC 2 mg/kg, 9 animals): 0 | lumen, secretary materials in the lumen and density of prostatic acinars, versus untreated BPH tissues (slide) ([3]; PEITC 2 mg/kg, FIG. 6.5): reduced
